Literature values as cited in US20060246530A1, “Method and reagent for the specifically identifying and quantifying one or more proteins in a sample” (priority 2002, published 2006).
Values belong to the compound of their own block, whether it stands above or below them.

How the values were obtained:
[1] = stability constant
[2] = stability constant, Gd
[3] = tested on: mice; settings: Intravenous LD50-rate in mice
[4] = stability constant, Cu
[5] = stability constant, Zn
[6] = selectivity factor

Compound: O=C(O)CN(CCN(CC(=O)O)CC(=O)O)CCN(CC(=O)O)CC(=O)O [DTPA]
Log KCal [1]: 10.75 | Log KGdL [2]: 22.46 | LD50 [3]: 5.6 mmol/kg | Log KCuL [4]: 21.38 | Log KZnL [5]: 18.29 | Log Ksel [6]: 7.04

Compound: O=C(O)CN1CCNCCN(CC(=O)O)CCN(CC(=O)O)CC1 [DO3A]
Log KCal [1]: 11.74 | Log KGdL [2]: 21.0 | LD50 [3]: 7 to 9 mmol/kg | Log KCuL [4]: 22.87 | Log KZnL [5]: 19.26 | Log Ksel [6]: 4.13

Compound: O=C(O)CN1CCN(CC(=O)O)CCN(CC(=O)O)CCN(CC(=O)O)CC1 [DOTA, 1,4,7,10-tetraazacyclododecane-1,4,7,10-tetraacetic acid]
Log KCal [1]: 17.23 | Log KGdL [2]: 24.6 | LD50 [3]: 11 mmol/kg | Log KCuL [4]: 22.63 | Log KZnL [5]: 21.05 | Log Ksel [6]: 8.3

Log KCal [1]: 10.61 | Log KGdL [2]: 17.7 | Log KCuL [4]: 18.78 | Log KZnL [5]: 16.5 | Log Ksel [6]: 4.23
Compound: O=C(O)CN(CCN(CC(=O)O)CC(=O)O)CC(=O)O [EDTA]

Compound: CC(O)CN1CCN(CC(=O)O)CCN(CC(=O)O)CCN(CC(=O)O)CC1 (centres unmarked) [HP-DO3A]
Log KCal [1]: 14.83 | Log KGdL [2]: 23.8 | LD50 [3]: 12 mmol/kg | Log KCuL [4]: 22.84 | Log KZnL [5]: 19.37 | Log Ksel [6]: 6.95
